{"source": "patent US8987267B2", "about": "“2-substituted-8-alkyl-7-OXO-7,8-dihydropyrido[2,3-D]pyrimidine-6-carbonitriles and uses thereof in treating proliferative disorders” (Temple University—of the Commonwealth System of Higher …, priority 2010, dated 2015)", "assay_type_in_all_cases": "biochemical", "key": {"FGFR4": {"biological_target": "FGFR4 (Homo sapiens, UniProt P22455)", "sequence (P22455 22-802, species assumed)": "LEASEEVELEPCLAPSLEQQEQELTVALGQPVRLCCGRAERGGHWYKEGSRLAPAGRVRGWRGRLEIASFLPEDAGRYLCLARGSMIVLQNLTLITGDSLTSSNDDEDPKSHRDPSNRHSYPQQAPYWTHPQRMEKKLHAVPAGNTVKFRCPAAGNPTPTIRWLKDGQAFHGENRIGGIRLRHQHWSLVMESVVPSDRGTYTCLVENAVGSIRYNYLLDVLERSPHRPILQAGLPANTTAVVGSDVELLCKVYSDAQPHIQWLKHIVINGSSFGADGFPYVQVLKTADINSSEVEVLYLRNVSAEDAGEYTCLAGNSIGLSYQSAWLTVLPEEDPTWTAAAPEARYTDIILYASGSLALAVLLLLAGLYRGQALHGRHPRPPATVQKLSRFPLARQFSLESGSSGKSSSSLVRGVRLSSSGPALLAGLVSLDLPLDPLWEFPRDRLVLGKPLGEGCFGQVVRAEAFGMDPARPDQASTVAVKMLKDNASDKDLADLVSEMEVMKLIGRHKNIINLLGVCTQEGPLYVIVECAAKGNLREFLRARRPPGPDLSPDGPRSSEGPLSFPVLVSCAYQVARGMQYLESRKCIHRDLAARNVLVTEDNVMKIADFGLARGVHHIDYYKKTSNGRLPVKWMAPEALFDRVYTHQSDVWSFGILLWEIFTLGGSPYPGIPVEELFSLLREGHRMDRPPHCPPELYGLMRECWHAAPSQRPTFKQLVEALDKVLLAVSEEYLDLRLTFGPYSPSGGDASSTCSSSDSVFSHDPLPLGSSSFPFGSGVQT", "assay": "Kinase inhibition panel", "conditions": "10 μM ATP"}, "[1]": {"biological_target": "T1, His-tagged full length ARK5 (Homo sapiens, UniProt O60285)", "T1 construct": "20 ng His-tagged full length ARK5 (Invitrogen PV4127); His; purchased Invitrogen PV4127", "T1 sequence (O60285 1-661)": "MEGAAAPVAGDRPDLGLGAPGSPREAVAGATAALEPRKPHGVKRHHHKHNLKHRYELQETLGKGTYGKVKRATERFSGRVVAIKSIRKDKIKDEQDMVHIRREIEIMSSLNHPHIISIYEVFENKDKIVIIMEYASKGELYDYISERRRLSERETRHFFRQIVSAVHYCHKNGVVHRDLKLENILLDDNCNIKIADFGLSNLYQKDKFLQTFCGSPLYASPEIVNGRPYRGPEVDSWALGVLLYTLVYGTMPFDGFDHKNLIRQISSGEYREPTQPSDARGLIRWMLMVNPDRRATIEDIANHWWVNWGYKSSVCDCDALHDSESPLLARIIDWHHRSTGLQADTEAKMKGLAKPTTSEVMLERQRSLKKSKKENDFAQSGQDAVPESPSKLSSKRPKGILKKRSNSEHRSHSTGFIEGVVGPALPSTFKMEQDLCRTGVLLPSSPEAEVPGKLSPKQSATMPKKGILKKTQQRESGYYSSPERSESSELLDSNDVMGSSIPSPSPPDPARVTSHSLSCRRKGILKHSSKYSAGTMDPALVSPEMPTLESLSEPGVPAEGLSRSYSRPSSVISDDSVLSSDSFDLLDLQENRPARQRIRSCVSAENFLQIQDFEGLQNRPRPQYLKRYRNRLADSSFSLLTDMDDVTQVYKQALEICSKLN", "assay": "ARK5 Kinase Assay (ARK5 Inhibition Assay)", "conditions": "CHKtide substrate, 1 μM ATP", "description": "20 ng His-tagged full length ARK5 (Invitrogen PV4127), a protein kinase, was diluted into kinase buffer (25 mM HEPES pH 7.5, 10 mM MgCl2, 0.5 mM EGTA, 0.5 mM Na3V04, 5 mM β Glycerophosphate, 2.5 mM DTT, 0.01% Triton X-100) and incubated with the indicated concentration of a compound of Table 3 at room temperature for 30 minutes. The kinase reactions were then initiated by the addition of 1 μg (3.28 μM) CHKtide substrate peptide (Upstate 12-414), 1 μM ATP and 10 μCi γ^32 P-ATP. The reactions were incubated at 30° C. for 10 minutes.\nSubsequently, the reactions were stopped by adding 3% phosphoric acid. A 10 μl aliquot was then transferred to an appropriate area of a p30 filtermat. The filtermat was allowed to dry for 20 minutes at room temperature and then washed three times with 75 mM phosphoric acid and twice with methanol. The filtermat was then dried for 20 minutes at room temperature. The filtermat was then exposed to X ray film or read in a scintillation counter. The scintillation counting values were plotted as function of log drug concentration using Prism 4 Graph pad software and IC50 values determined by plotting sigmoidal non-linear regression curves with variable slope."}, "EPHA2": {"biological_target": "EPHA2 (Homo sapiens, UniProt P29317)", "sequence (P29317 24-976, species assumed)": "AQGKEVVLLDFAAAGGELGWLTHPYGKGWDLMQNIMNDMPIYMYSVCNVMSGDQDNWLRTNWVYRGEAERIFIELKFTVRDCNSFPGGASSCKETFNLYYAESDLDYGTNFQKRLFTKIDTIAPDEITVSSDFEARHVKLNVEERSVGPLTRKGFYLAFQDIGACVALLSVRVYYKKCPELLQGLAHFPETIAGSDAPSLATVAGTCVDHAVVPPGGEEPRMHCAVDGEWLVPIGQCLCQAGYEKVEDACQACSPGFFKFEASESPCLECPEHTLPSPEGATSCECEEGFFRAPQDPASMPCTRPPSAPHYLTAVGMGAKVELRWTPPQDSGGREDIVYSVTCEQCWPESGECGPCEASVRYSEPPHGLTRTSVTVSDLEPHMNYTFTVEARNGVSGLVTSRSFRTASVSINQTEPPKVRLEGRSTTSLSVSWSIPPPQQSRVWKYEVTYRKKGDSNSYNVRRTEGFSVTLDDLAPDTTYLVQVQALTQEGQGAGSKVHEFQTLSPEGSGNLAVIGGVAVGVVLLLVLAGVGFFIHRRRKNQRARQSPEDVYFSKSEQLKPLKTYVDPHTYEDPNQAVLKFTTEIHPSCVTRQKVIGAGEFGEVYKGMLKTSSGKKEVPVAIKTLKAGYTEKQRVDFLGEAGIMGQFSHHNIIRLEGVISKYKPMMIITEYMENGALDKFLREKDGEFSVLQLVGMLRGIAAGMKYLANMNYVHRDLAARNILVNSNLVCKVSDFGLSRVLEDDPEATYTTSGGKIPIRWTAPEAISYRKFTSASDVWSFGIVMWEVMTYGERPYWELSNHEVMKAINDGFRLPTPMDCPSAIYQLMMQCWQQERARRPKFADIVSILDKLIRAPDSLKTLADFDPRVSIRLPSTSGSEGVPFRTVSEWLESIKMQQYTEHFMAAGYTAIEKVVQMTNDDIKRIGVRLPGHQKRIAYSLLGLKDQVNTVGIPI", "assay": "Kinase inhibition panel", "conditions": "10 μM ATP"}, "FGR": {"biological_target": "FGR (Homo sapiens, UniProt P09769)", "sequence (P09769 whole entry, species assumed)": "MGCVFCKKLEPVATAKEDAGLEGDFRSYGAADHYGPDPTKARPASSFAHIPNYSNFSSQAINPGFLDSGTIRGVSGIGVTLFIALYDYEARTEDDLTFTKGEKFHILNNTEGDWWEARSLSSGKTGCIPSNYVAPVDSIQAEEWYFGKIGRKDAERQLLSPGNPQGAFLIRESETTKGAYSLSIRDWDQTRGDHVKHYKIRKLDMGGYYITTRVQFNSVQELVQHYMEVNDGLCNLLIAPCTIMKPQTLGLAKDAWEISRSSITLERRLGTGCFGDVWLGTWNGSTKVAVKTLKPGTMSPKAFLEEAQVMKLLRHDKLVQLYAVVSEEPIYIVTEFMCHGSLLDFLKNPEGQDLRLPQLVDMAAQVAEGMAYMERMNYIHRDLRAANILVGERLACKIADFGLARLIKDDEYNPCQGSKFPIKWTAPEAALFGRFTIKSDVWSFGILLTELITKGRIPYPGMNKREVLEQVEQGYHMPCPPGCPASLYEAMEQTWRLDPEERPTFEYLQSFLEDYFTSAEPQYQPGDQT", "assay": "Kinase inhibition panel", "conditions": "10 μM ATP"}, "ZAK/MLTK": {"biological_target": "ZAK/MLTK (Homo sapiens, UniProt Q9NYL2)", "sequence (Q9NYL2 whole entry)": "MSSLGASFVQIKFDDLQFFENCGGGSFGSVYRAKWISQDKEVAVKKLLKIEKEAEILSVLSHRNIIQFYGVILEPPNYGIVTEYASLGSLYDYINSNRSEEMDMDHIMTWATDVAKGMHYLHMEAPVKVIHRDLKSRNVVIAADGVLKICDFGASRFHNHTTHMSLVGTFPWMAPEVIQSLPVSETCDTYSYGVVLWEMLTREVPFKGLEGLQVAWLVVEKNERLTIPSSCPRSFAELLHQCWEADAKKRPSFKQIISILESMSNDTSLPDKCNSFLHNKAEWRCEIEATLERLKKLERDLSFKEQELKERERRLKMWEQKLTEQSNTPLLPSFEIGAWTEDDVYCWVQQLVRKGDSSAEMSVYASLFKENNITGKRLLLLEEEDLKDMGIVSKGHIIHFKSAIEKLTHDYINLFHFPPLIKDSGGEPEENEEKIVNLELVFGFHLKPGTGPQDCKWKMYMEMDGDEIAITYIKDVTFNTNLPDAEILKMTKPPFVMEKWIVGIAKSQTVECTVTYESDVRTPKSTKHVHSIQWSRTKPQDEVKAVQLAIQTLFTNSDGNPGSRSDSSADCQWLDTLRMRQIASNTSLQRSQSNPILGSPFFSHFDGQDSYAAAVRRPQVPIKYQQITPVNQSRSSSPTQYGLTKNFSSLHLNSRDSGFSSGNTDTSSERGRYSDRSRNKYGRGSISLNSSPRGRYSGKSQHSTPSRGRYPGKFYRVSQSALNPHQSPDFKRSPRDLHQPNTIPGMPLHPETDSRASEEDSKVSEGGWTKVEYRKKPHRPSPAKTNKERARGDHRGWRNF", "assay": "Kinase inhibition panel", "conditions": "10 μM ATP"}, "c-Kit": {"biological_target": "c-Kit (Homo sapiens, UniProt P10721)", "sequence (P10721 26-976)": "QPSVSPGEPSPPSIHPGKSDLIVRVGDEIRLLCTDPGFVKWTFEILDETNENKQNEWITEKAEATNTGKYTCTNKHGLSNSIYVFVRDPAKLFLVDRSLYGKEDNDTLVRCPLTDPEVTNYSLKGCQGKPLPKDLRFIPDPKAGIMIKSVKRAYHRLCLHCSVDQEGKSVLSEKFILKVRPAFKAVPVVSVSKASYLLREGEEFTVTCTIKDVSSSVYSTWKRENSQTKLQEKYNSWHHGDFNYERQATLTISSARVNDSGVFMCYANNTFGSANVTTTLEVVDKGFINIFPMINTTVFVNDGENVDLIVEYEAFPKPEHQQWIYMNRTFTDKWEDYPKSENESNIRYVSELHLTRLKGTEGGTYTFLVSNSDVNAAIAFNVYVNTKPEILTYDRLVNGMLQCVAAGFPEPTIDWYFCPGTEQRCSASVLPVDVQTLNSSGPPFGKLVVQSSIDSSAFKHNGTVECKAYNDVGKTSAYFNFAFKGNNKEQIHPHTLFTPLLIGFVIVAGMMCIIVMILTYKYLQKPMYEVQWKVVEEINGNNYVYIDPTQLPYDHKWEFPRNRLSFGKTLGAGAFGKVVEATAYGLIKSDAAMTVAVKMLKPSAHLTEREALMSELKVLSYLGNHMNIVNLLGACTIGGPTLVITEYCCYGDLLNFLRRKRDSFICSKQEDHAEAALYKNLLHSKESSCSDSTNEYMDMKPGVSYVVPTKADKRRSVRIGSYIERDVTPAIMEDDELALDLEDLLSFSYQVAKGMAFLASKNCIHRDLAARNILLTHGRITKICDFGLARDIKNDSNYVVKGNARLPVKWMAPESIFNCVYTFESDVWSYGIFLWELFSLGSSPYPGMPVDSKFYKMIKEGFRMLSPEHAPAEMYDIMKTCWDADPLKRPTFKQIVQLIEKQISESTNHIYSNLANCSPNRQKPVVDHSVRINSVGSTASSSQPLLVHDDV", "assay": "Kinase inhibition panel", "conditions": "10 μM ATP"}, "NLK": {"biological_target": "NLK (Homo sapiens, UniProt Q9UBE8)", "sequence (Q9UBE8 whole entry)": "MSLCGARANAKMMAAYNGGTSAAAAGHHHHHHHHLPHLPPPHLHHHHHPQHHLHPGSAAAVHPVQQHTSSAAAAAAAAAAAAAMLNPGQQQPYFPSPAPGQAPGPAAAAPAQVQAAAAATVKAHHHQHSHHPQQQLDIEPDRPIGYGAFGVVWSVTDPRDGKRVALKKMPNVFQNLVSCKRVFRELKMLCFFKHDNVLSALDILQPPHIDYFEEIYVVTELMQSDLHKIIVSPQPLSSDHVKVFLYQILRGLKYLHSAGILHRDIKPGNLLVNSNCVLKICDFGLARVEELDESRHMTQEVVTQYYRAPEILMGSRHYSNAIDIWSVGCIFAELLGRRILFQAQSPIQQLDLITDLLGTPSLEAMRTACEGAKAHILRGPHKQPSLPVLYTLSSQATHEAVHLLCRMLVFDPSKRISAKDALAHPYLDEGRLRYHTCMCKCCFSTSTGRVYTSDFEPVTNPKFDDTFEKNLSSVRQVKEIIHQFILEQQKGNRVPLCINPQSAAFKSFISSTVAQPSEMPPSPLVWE", "assay": "Kinase inhibition panel", "conditions": "10 μM ATP"}}, "data": [{"smiles": "CN1CCN(c2ccc(Nc3ncc4cc(C#N)c(=O)n(C5CCCC5)c4n3)cc2)CC1", "note": "[Compound 12, 8-cyclopentyl-2-((4-(4-methylpiperazin-1-yl)phenyl)amino)-7-oxo-7,8-dihydropyrido[2,3-d]pyrimidine-6-carbonitrile]", "values": [{"measurement": "IC50", "setting": "FGFR4", "value": 3550, "unit": "nM"}, {"measurement": "IC50", "setting": "[1]", "value": 27.3, "unit": "nM"}, {"measurement": "IC50", "setting": "EPHA2", "value": 114, "unit": "nM"}, {"measurement": "IC50", "setting": "FGR", "value": 112, "unit": "nM"}, {"measurement": "IC50", "setting": "ZAK/MLTK", "value": 29.5, "unit": "nM"}, {"measurement": "IC50", "setting": "c-Kit", "value": 408, "unit": "nM"}, {"measurement": "IC50", "setting": "NLK", "value": 45.3, "unit": "nM"}]}]}
